The values that follow come from patent US10577322B2, “5-methoxytryptophan and its derivatives and uses thereof” (National Health Research Institutes, priority 2015, dated 2020).

The test system of assay [1] is proinflammatory cytokines. In words: LPS-induced proinflammatory cytokines in peritoneal macrophages (ELISA). It is filed as cell-based, mouse. To be noted: LPS 24 h. How it is done: For peritoneal macrophage isolation, C57BL/6J mice were injected intraperitoneally with 2 ml of 4% thioglycollate. Four days after injection, the peritoneal cavity was washed with 5 ml of ice-cold RPMI1640 medium, and cells from the peritoneal exudates were collected by centrifugation, and suspended in RPMI1640 medium, then seeded on 15-cm dishes and allowed to adhere for 4 h. Floating cells were washed out, and adherent cells were used as peritoneal macrophages in the experiments. The cells were incubated with or without LPS (100 ng/ml) for the indicated time before each experiment, as in the protocol for the RAW264.7 cells.
(§1) Cytokine levels in the culture supernatants and serum were determined in microtiter plates (96-well) by a specific sandwich ELISA (Biosource) as previously described (Wu, J. Y. & Kuo, C. C. Pivotal role of ADP-ribosylation factor 6 in Toll-like receptor 9-mediated immune signaling. J Biol Chem 287, 4323-4334 (2012)) (Lee, G. L., et al. TLR 2 induces vascular smooth muscle cell migration through cAMP response element-binding protein-mediated interleukin-6 production. Arterioscler Thromb Vasc Biol 32, 2751-2760 (2012); hereinafter, Lee, G. L., et al.).
Furthermore, peritoneal macrophages were stimulated with LPS with or without 5-MTP. After 24 h, proinflammatory cytokines were measured by ELISA.
Background: ELISA stands for enzyme-linked immunosorbent assay.

Assay [2] relates to iNOS. As to the kind of experiment: iNOS immunohistochemistry in lung tissues of LPS-treated mice. The class given is in vivo. The conditions noted are these: LPS 60 mg/kg; 12 h, 16 h and 24 h. How it is done: Prior to immunohistochemical detection of COX-2, iNOS, Ly6g, or cleaved caspase-3 in lung sections, sections were deparaffinized with xylene, progressively rehydrated through graded alcohols. Antigen sites were retrieved by heating the sections on slides in pH 8 EDTA antigen. retrieval (Trilogy; Cell Marque Corporation) in electric pressure cooker for 15 min. […] All antibodies described hereafter were diluted in blocking buffer. Sections were incubated at room temperature for 2 h with primary antibody and then washed in PBST. The sections were incubated with primary antibody amplifier quanta (Thermo) for 10 minutes. After rinsing with PBST, the sections were incubated with HRP Polymer Quanto (Thermo) for 10 minutes and washed three times with PBST. COX-2, iNOS, Ly6g and cleaved caspase-3 were visualized by the addition of DAB Quanto Chromogen: Substrate for 3 minutes. Tissues were also counterstained with hematoxylin.
Moreover, paraffin-embedded sections were prepared from lungs of mice injected with 60 mg/kg LPS with or without saline or 5-MTP at 12 h, 16 h and 24 h. COX-2 and inducible nitric oxide synthase (iNOS) protein levels in lung tissues were determined by immunohistochemistry by staining with anti-COX-2 and anti-iNOS antibodies, respectively. The results are shown in FIGS. 6A-6B, in which scale bars represent 100 μm. […]

Assay [3] deals with proinflammatory cytokines. As to the kind of experiment: Proinflammatory cytokines level in serum of LPS-treated mice (ELISA). It is filed as in vivo. How it is done: C57BL/6 mice (6-8 wks old) were treated intraperitoneally with saline or with different concentrations of 5-MTP (23.4 or 100 mg/kg) for 30 min before intraperitoneal administration of LPS (60 mg/kg). Animals were monitored for survival and other clinical signs including ruffled fur, lethargy, diarrhea, and body weight loss. Some animals were sacrificed at different times after LPS injection. Blood samples, peritoneal exudates, lungs, and spleens were collected. All mouse experiments were approved by the institutional Animal Care and Use Committee, National Health Research Institutes.
as §1
Mice were injected intraperitoneally with or without different concentrations of 5-MTP or saline for 30 min, followed by LPS administration for the indicated time. Proinflammatory cytokines level in serum was measured by ELISA. (n=6 per group).

The test system of assay [4] is peritoneal macrophages. As to the kind of experiment: Ex vivo cytokine production of peritoneal macrophages from endotoxemic mice. It is filed as in vivo. The conditions noted are these: macrophages isolated 8 h after LPS, 5-MTP 23.4 mg/kg, cultured 24 h. How it is done: To further confirm that 5-MTP deactivates peritoneal macrophages during endotoxemia, we evaluated the effect of 5-MTP on IL-1β and IL-6 production ex vivo in peritoneal macrophages isolated from untreated or 5-MTP-treated endotoxemic mice. Peritoneal macrophages were isolated 8 h after LPS injection with saline or 5-MTP (23.4 mg/kg) and cultured with medium alone. After 24 h, proinflammatory cytokines were measured by ELISA (n=3).

Assay [5] has as its system chemokines. As to the kind of experiment: Serum chemokine level in LPS-injected mice (ELISA). The conditions noted are these: 5-MTP 23.4 mg/kg, 24 h. The class given is in vivo. How it is done: Furthermore, chemokine level was measured by ELISA in the serum of saline or LPS-injected mice with or without saline or 5-MTP (23.4 mg/kg) after 24 h (n=10). The results shown in FIG. 8C indicate that LPS-induced elevation of chemokines, CXCL1, MCP-1, RANTES and eotaxin in the serum was blunted by 5-MTP treatment at 24 h.

Assay [6] is described as follows: Spleen weight/body weight ratio in LPS-challenged mice. It is filed as in vivo. How it is done: Furthermore, spleen weight/body weight (SW/BW) ratio was also assessed (n=6 mice/group).
Assay [7] concerns p38 MAPK. As to the kind of experiment: LPS-induced p38 MAPK phosphorylation in RAW264.7 cells (immunoblot). It is filed as cell-based, mouse. The conditions noted are these: LPS 4 h. How it is done:
Cellular protein were resolved by 5% to 20% SDS-PAGE and transferred to nitrocellulose membranes and blotted with specific antibodies as previously described (Lee, G. L., et al.).
After pretreating RAW264.7 cells with different concentrations of 5-MTP for 30 min, cells were stimulated with LPS for 4 h. Cell lysates were immunoblotted with antibodies for p38, phospho-p38 (p-p38), ERK½, phospho-ERK½ (p-ERK½) or β-actin. […] Activation of p38 MAPK in macrophages is required for TLR-induced NF-κB activation, which is one of the key factors affecting TLR-induced cytokine production. Thus, we evaluated the effect of 5-MTP on LPS-induced. NF-κB activation.

Assay [8] concerns NF-κB p65. In words: Phospho-p65 level in lung tissues (ELISA kit). The conditions noted are these: 4 and 8 h after LPS, 5-MTP 23.4 mg/kg. The class given is in vivo, mice. How it is done: Since NF-κB activation plays a critical role in the initiation and progression of systemic inflammation and septic pathology, the effect of 5-MTP on NF-κB activation in lung tissue was evaluated. Phospho-p65 level in lung tissues was determined by an ELISA kit at 4 and 8 h after LPS infusion with or without 5-MTP (23.4 mg/kg) (n=6 mice/group).

Setting [9] is: LPS-treated mice, dose- and time-dependent.

Take `COc1ccc2[nH]cc(C[C@H](N)C(=O)O)c2c1` [5-MTP, 5-methoxytryptophan]: in assay [1], the IL-1β production result is “inhibited”, the IL-6 production result is listed as “inhibited” and the TNF-α production entry is listed as “inhibited”. Also, in assay [2], the “iNOS expression in lung tissues” value is “suppresses”. Further, the “all the tested serum cytokines” value in assay [3] (5-MTP at 23.4 mg/kg) was “significantly reduced”. In assay [3] (5-MTP at 100 mg/kg), the “all the tested serum cytokines” value is reported as “reduced the cytokines to the basal level”. Also, the “rise of IL-12” value in assay [3] (LPS-treated mice, data not shown) was “suppressed the rise”. In addition, in assay [3] (setting [9]), the “blood level of IL-1β” value is on record as “abated the elevation”, the “blood level of IL-6” value was “abated the elevation”, the “blood level of INF-κ” value was “abated the elevation” and the “blood level of TNF-α” value was “abated the elevation”. In assay [4], the “ex vivo IL-1β production” value was “significantly suppressed” and the “ex vivo IL-6 production” value is on record as “significantly suppressed”. Also, in assay [5], the “LPS-induced elevation of CXCL1 in serum” value is recorded as “blunted”, the “LPS-induced elevation of MCP-1 in serum” value is “blunted”, the “LPS-induced elevation of RANTES in serum” value is given as “blunted” and the “LPS-induced elevation of eotaxin in serum” value is listed as “blunted”. For the same molecule, in assay [6], the “spleen weight/body weight (SW/BW) ratio, spleen edema” value is given as “ameliorated spleen edema in a dose-dependent manner”. Besides, in assay [7], the “phosphorylation of p38 MAPK” value is recorded as “dose-dependently blocked”. In assay [8], the “phosphorylation level of NF-κB p65 in lung tissues” value is “reduced by 5-MTP”.
